Experimental data reported in US10472663B2, “Procedure for the rapid determination of bacterial susceptibility to antibiotics that inhibit protein synthesis” (ABM TECHNOLOGIES, LLC, priority 2015, dated 2019).

Assays:
Format in all cases: cell-based
Pseudomonas aeruginosa [1] = experiment: Variant Micromax assay of cell enlargement by ceftazidime after tobramycin (Example 7)
Protocol: As an example, two strains of Pseudomonas aeruginosa exponentially growing in Mueller-Hinton broth were assayed. These strains were both susceptible to the β-lactam ceftazidime, which inhibits peptidoglycan synthesis. One strain was susceptible and the other resistant to the aminoglycoside tobramycin (an inhibitor of protein synthesis). For the purpose of rapidly distinguishing the susceptible and the resistant strain to tobramycin each strain was subjected to four treatments.
A portion of each strain was incubated with tobramycin at 4 μg/ml (the CLSI breakpoint of susceptibility) for 75 minutes. An assay of this portion is depicted at FIGS. 31 and 34. Another portion of each strain was incubated with ceftazidime at 0.5 μg/ml for 60 minutes. An assay of this portion is depicted at FIGS. 32 and 35. Still another portion of both strains was incubated with tobramycin at 4 μg/ml for 15 minutes followed by ceftazidime at 0.5 μg/ml for 60 minutes, without removing the tobramycin. Assays of these strains can be seen at FIGS. 33 and 36, respectively. A final portion of each strain was not treated with either antibiotic.
After incubation with the antibiotics, cells were processed using a variant Micromax technology to visualize the enlargement or not of the bacteria. Samples from each culture were immersed in an agarose microgel on a slide, dried, stained with a high sensitive fluorochrome for DNA like SYBR Gold and visualized under fluorescence microscopy to visualize cell shape and size.

Escherichia coli = experiment: Micromax assay of ciprofloxacin-induced DNA fragmentation after a protein synthesis inhibitor (Example 1); conditions: for DNA fragmentation of nucleoids: tobramycin 4 μg/ml 10 min followed by ciprofloxacin 1 μg/ml 30 min
Protocol: As an exemplification of the principals previously described, two strains of Escherichia coli exponentially growing in Mueller-Hinton broth were assayed (FIGS. 1-6). The first strain of Escherichia coli was a TG1 strain susceptible to both the aminoglycoside tobramycin (an inhibitor of protein synthesis) and the quinolone ciprofloxacin (an agent which induces DNA fragmentation by trapping of topoisomerases in DNA) (FIGS. 1-3). The second strain was a clinical isolate resistant to tobramycin and susceptible to ciprofloxacin (FIGS. 4-6). Four treatments were applied to each strain to rapidly distinguish the susceptible and the resistant strain to tobramycin.
One portion of both bacterial strains was incubated with tobramycin at 4 μg/ml for 40 minutes (FIGS. 1 and 4), a dosage indicated by the CLSI as the breakpoint of susceptibility to tobramycin in the standard antibiogram based on microdilution. Another portion of both strains was incubated with ciprofloxacin at 1 μg/ml for 30 min (FIGS. 2 and 5). Still another portion of both strains was incubated with tobramycin at 4 μg/ml for 10 min followed by ciprofloxacin at 1 μg/ml for 30 min, without removing the tobramycin (FIGS. 3 and 6). A final portion was left with no antibiotic.
After each incubation cells were processed using the variant of the Micromax technology to visualize the nucleoids, i.e. bacterial chromosomal DNA, in all the cells of the population. Cells from each culture were immersed in an agarose microgel on a slide and incubated with a specific lysing solution to remove the cell wall in all the cells and release in the microgel the nucleoids contained inside the bacteria. These are dried, stained with a high sensitive fluorochrome for DNA like SYBR Gold and visualized under fluorescence microscopy. FIGS. 1-6 depicts representative images captured under each of the conditions described below.
The above described methodology was employed to rapidly determine the susceptibility of 12 strains of E. coli to tobramycin. One portion of each bacterial strain was incubated with tobramycin at the susceptibility breakpoint dosage, 4 μg/ml, for 40 min. A portion of each strain was incubated with ciprofloxacin at 1 μg/ml for 30 min. Still another portion of each strain was incubated with tobramycin at 4 μg/ml for 10 min followed by ciprofloxacin at 1 μg/ml for 30 min, without removing the tobramycin. A final portion of each strain was left with no antibiotic. E. coli strains were identified as susceptible or not based on the levels of DNA fragmentation in the portion of each strain incubated with ciprofloxacin and the portion incubated with tobramycin and ciprofloxacin.
The principals exemplified in Example 1 were confirmed with the aminoglycoside amikacin. Briefly, a susceptible and resistant strain of E. coli were exposed to similar conditions to those described in Example 1, except that amikacin was utilized as the protein synthesis inhibiting antibiotic. Specifically, each was strain subjected to four treatments. One portion received no antibiotics, and another portion received only a quinolone, such as ciprofloxacin or norfloxacin to induce DNA fragmentation. Still another portion received the protein synthesis inhibiting antibiotic aminoglycoside amikacin, followed by the quinolone. Another portion received only amikacin. A final portion received neither antibiotic.
The principals exemplified in Example 1 were further confirmed with the aminoglycoside gentamicin. Briefly, the rapid test was performed on 15 isolated E. coli strains according to the methodology described above, except that gentamicinin was utilized as the protein synthesis inhibiting antibiotic. Suppressed DNA fragmentation were used to characterize bacterial susceptibility and those characterizations were verified with the standard antibiogram for gentamicin by microdilution. […]

Pseudomonas aeruginosa [2] = experiment: Variant Micromax assay of cell wall damage by meropenem after tobramycin (Example 5); conditions: for release of nucleoids (cell wall damage): tobramycin 4 μg/ml 15 min followed by meropenem 0.2 μg/ml 60 min
Text: As an exemplification of this principal, FIGS. 19-24 illustrates assays of two strains of Pseudomonas aeruginosa exponentially growing in Mueller-Hinton broth. Both strains were both susceptible to the β-lactam meropenem, which inhibits peptidoglycan synthesis. One strain was susceptible (FIGS. 19-21) and the other resistant (FIGS. 22-24) to the aminoglycoside tobramycin (inhibitor of protein synthesis).
For the purpose of rapidly distinguishing susceptible and resistant (i.e. non-susceptible) strains to tobramycin each strain was subjected to four treatments. A portion of each strain was incubated with tobramycin at 4 μg/ml for 75 min (FIGS. 19 and 22). The dose utilized, was indicated by the CLSI as the breakpoint of susceptibility to tobramycin. FIGS. 20 and 23 illustrate an assay from another portion of each strain, which was incubated with Meropenem at 0.2 μg/ml for 60 min. FIGS. 21 and 24, illustrate assays from still another portion of both strains which was incubated with tobramycin at 4 μg/ml for 15 min followed by meropenem at 0.2 μg/ml for 60 min, without removing the tobramycin. Still another portion of both strains was maintained without the addition of either antibiotic.
After incubation cells were processed using a variant Micromax technology to visualize the affectation or not of the cell wall based on the release or not of the nucleoids contained inside the bacteria. In the same manner described previously, samples from cells from the culture are immersed in an agarose microgel on a slide and incubated with a specific lysing solution that removes the cell wall only in those bacteria whose peptidoglycan was affected, thus releasing in the microgel the nucleoids contained inside. […] The processed bacteria in microgel are dried, stained with a high sensitive fluorochrome for DNA like SYBR Gold and visualized under fluorescence microscopy.

[3] = rapid test, confirmed by microdilution antibiogram, 12 strains for tobramycin, 15 for gentamicin

Compound: NC[C@H]1O[C@H](O[C@H]2[C@H](O)[C@@H](O[C@H]3O[C@H](CO)[C@@H](O)[C@H](N)[C@H]3O)[C@H](N)C[C@@H]2N)[C@H](N)C[C@@H]1O [tobramycin]
- cell enlargement (Pseudomonas aeruginosa [1]; tobramycin 4 μg/ml 15 minutes followed by ceftazidime 0.5 μg/ml 60 minutes, tobramycin-resistant strain): bacteria appeared enlarged
- bacterial shape and size (Pseudomonas aeruginosa [1]; tobramycin alone 4 μg/ml 75 minutes, both strains): does not affect the bacterial shape and size
- E. coli strains identified as non-susceptible (resistant) (Escherichia coli; [3]): three of the twelve strains as non-susceptible
- E. coli strains identified as susceptible (Escherichia coli; [3]): nine of the twelve strains as susceptible
- DNA fragmentation of nucleoids (Escherichia coli; tobramycin-resistant clinical isolate): the DNA was extensively fragmented
- DNA fragmentation of nucleoids (Escherichia coli; tobramycin-susceptible TG1 strain): nucleoids with reduced level of DNA fragmentation
- modification of nucleoids (Escherichia coli; tobramycin alone 4 μg/ml 40 min, both tobramycin-susceptible and -resistant strains): did not result in any modifications of the nucleoids
- release of nucleoids (cell wall damage) (Pseudomonas aeruginosa [2]; tobramycin-resistant strain): the nucleoids were released
- release of nucleoids (cell wall damage) (Pseudomonas aeruginosa [2]; tobramycin-susceptible strain): unchanged, non-lysed bacteria
- cell wall lysis and bacterial shape (Pseudomonas aeruginosa [2]; tobramycin alone 4 μg/ml 75 min, both strains): does not result in cell wall lysis
